Tests used:
rats, heart and kidneys = assay: Assay X: catecholamine analysis of heart and kidney tissue after 5 days of infusion; format: in vivo, rat
Procedure: Following 5 days of infusion, the kidney was exposed through a small flank incision, made in the anesthetized rat, and the renal artery and vein were ligated. Following this the kidney was rapidly excised distal to the ligation and frozen in liquid nitrogen. Similarly, the heart was excised and frozen subsequent to the removal of both kidneys. The frozen tissues were stored in closed containers at −80° C. Tissue samples were thawed on ice and their weight recorded prior to being placed in a flat bottom tube. The cold extraction solvent (2 ml/g tissue) was then added and the sample was homogenized with a Polytron. Extraction Solvent: 0.1 M perchloric acid (3 ml of 70% PCA to 500 ml); 0.4 mM Na metabisulphite (38 mg/500 ml). The volume was then measured and 0.05 ml of a 1 uM/L solution of dihydroxybenzylamine (DHBA) in extraction solvent was added for every 0.95 ml of homogenate to yield a 50 nM/L internal standard concentration. The homogenate was then mixed and centrifuged at 4° C., 3000 rpm for 35 minutes. A 2 ml aliquot of the supernatant was then neutralized by adding 0.5 ml of 2 M Tris, pH 8.8 and mixing. The sample was then placed on an alumina column (40 mg, Spe-ed CAT cartridge; Applied Separations; Bethlehem, Pa.) and the catecholamines were bound, washed and eluted using a vacuum manifold system (Adsorbex SPU, EM Science, Cherry Hill, N.J.) operating at ca. 4 ml/min. until the column was dry. Washes of 1 ml H20—0.5 ml MeOH—1 ml H20 were followed by elution with 1 ml of extraction solvent. A 200 μl sample of the eluant was injected onto a C-18 reversed phase analytical HPLC column, 5 um, 4.6 mm×250 mm (e.g., Beckman #235335, LKB 2134-630 Spherisorb ODS-2) and eluted with a recycled mobile phase run at ambient temperature and a flow rate of 0.5 ml/min (ca. 75 bar). Mobile Phase: 0.02 M Na2HP04 in 75/25(v/v) H20/MeOH 0.007% SDS pH 3.5 (conc. H3P04). The separated catecholamines were detected with a LKB 2143 electrochemical detector at a potential setting of 500 mV using a teflon flow cell spacer of 2.2 μl and a time constant of 2 sec. Peak heights were measured and recorded along with the chromatogram tracing using a Spectra-Physics 4270 integrator. […] The resulting factor (calculated for each sample) was used to correct for losses due to dilution, non-specific binding to the tissue precipitate, incomplete elution, etc. Concentrations were calculated by multiplying the peak heights for Epi, NE and DA by that samples correction factor and then dividing this value by the peak height of the respective standard. […] This value is multiplied by the volume of the homogenate (determined previously) to get the total catecholamine content of the tissue expressed in moles/g tissue. […]

[1] = Assay IV: metabolism of conjugate to fusaric acid in rat kidney homogenate; format: in vitro ADME
Procedure: A freshly excised rat kidney was homogenized in 10 ml cold buffer (100 mM Tris, 15 mM glycylglycine, pH 7.4) with a Polytron Tissue Homogenizer (Brinkmann). The resulting suspension, diluted with buffer, was incubated in the presence of the Ex. #859 conjugate at 37° C. At various times aliquots were removed, deproteinized with an equal volume of cold trichloroacetic acid (25%) and centrifuged. The supernatant was injected onto a C-18 reverse-phase HPLC column and eluted isocratically with a mixture of acetonitrile and water (20:80 v/v) containing trifluoroacetic acid (0.05%). Eluted compounds were monitored by absorbance at 254 nm and compared to standards run under identical conditions. In the assay using pure kidney enzyme homogenate, the Ex. #859 conjugate was also incubated under the same conditions as described except that 5 mg of gamma-glutamyl transpeptidase (Sigma, 23 units/mg) and 10 mg of acylase I (Sigma, 4800 units/mg) were added in place of the homogenate. Analysis by HPLC was performed in a manner identical to that used for the kidney homogenate experiment.

[2] = tested on: Spontaneously Hypertensive Rats (SHR); assay: Assay VII: acute effects on arterial pressure in anesthetized SHR; format: in vivo, rat; conditions: for Mean arterial pressure: i.v.: fusaric acid and fusaric acid hydrazide 100 mg/kg, Ex. #859 250 mg/kg
Procedure: Mean arterial pressure effects of fusaric acid hydrazide (100 mg/kg, i.v.), fusaric acid (100 mg/kg, i.v.) and Ex. #859 conjugate (250 mg/kg, i.v.) are shown in Table XXVII during a vehicle control period and 60 min post-injection of compound in anesthetized SHR. Rats were prepared as described above, minus the renal artery flow probe.

SHR = assay: Assay VIII: chronic 5 day i.v. infusion, mean arterial pressure in SHR; format: in vivo, rat; conditions: for chronic effect on mean arterial pressure compared to vehicle: SHR, 5 day infusion, Ex. #859 5 mg/hr, fusaric acid 2.5 mg/hr
Procedure: The Ex. #859 conjugate and saline vehicle were infused continuously for 5 days in SHR. Mean arterial pressure was measured (Gould Chart Recorder, model 3800; Statham P23Db pressure transducer) via an indwelling femoral artery catheter between 10:00 a.m. and 2:00 p.m. each day. The Ex. #859 conjugate (5 mg/hr), fusaric acid (2.5 mg/hr), and saline (100 μ1/hr) were infused via a jugular vein catheter with a Harvard infusion pump.

## CCCCc1ccc(C(=O)NNC(=O)CCC(NC(C)=O)C(=O)O)nc1 [Ex. #859, N-acetyl-L-glutamic acid, 5-[(5-butyl-2-pyridinyl)-carbonyl]hydrazide]
rats, heart and kidneys
  heart norepinephrine concentration relative to vehicle: only fusaric acid decreased heart norepinephrine concentration
  kidney norepinephrine concentration relative to vehicle: decreased kidney norepinephrine concentration
[1]; kidney homogenate, 37° C
  amount of fusaric acid liberated on incubation: linear increase
  other metabolites observed (fusaric acid hydrazide, gamma-glutamyl fusaric acid hydrazide): No fusaric acid hydrazide or gamma-glutamyl fusaric acid hydrazide was observed
[2]; 60 MIN post-injection
  Mean arterial pressure: 146 ± 15 mmHg
[2]; ZERO (vehicle control period)
  Mean arterial pressure: 151 ± 9 mmHg
[2]; i.v., 60 min post-injection
  hypotensive effect / effect on mean arterial pressure: no effect
SHR; 5 mg/hr i.v. infusion, day 1
  MAP (SE): 122 ± 9 mm Hg
SHR; 5 mg/hr i.v. infusion, day 2
  MAP (SE): 115 ± 9 mm Hg
SHR; 5 mg/hr i.v. infusion, day 3
  MAP (SE): 119 ± 11 mm Hg
SHR; 5 mg/hr i.v. infusion, day 4
  MAP (SE): 121 ± 7 mm Hg
SHR; 5 mg/hr i.v. infusion, day 5
  MAP (SE): 115 ± 8 mm Hg
SHR; 5 mg/hr i.v. infusion, day zero
  MAP (SE): 146 ± 5 mm Hg
SHR
  chronic effect on mean arterial pressure compared to vehicle: lowered mean arterial pressure similarly

## CCCCc1ccc(C(=O)O)nc1 [Fusaric Acid, 5-n-butylpicolinic acid]
rats, heart and kidneys
  heart norepinephrine concentration relative to vehicle: decreased heart norepinephrine concentration
  kidney norepinephrine concentration relative to vehicle: decreased kidney norepinephrine concentration
[1]; kidney homogenate incubation conditions
  stability of liberated fusaric acid: remains stable
[2]; 60 MIN post-injection
  Mean arterial pressure: 110 ± 21 mmHg
[2]; ZERO (vehicle control period)
  Mean arterial pressure: 164 ± 10 mmHg
SHR; 2.5 mg/hr i.v. infusion, day 1
  MAP (SE): 118 ± 5 mm Hg
SHR; 2.5 mg/hr i.v. infusion, day 2
  MAP (SE): 114 ± 7 mm Hg
SHR; 2.5 mg/hr i.v. infusion, day 3
  MAP (SE): 122 ± 5 mm Hg
SHR; 2.5 mg/hr i.v. infusion, day 4
  MAP (SE): 114 ± 6 mm Hg
SHR; 2.5 mg/hr i.v. infusion, day 5
  MAP (SE): 114 ± 3 mm Hg
SHR; 2.5 mg/hr i.v. infusion, day zero
  MAP (SE): 148 ± 6 mm Hg
SHR
  chronic effect on mean arterial pressure compared to vehicle: lowered mean arterial pressure similarly

— patent publication US20030220521A1, “Renal-selective prodrugs for control of renal sympathetic nerve activity in the treatment of hypertension” (G.D. Searle & Co., priority 1989, published 2003)
